# Laboratory results as given in article PMC13408522, “The Effect of Glycosylation on Biodistribution and Cytotoxicity of ^99mTc-Radiolabeled Luteolin” (Advanced Pharmaceutical Bulletin, 2025).
# Entries after “also recorded” stand apart in the source; their conditions may differ. Where two headings read alike, the source gives them in different places.
# How the values were obtained:
# [1] = tested on: HepG2 cells; set-up: method as in PMID 32129972; settings: cited from earlier work
# [2] = tested on: HepG2 cells; settings: cited from earlier work
# [3] = tested on: SW480 cells; experiment: MTT cell viability assay, SW480; assay type: cell-based; settings: 5-200 µg/mL, 24 h
# Method: (§1) According to the biodistribution results of Lu and LuG in the previous step, three cell lines were selected for further analysis. HUVEC cell line (an endothelial cell that was isolated from the umbilical cord vein) as a normal cell, SW480 as a colorectal cancer cell line, and HepG2 as a hepatocellular carcinoma cell line were obtained from the cell bank of Roshd Azma Company. They were cultured in Dulbecco’s Modified Eagle Medium (DMEM) supplemented with FBS 10% (Fetal Bovine Serum) and Pen/Sterp 10^4 U/mL (Penicillin- Streptomycin) at 37°C and 5% carbon dioxide (CO2). Then, 10^5 cells/mL were seeded in 96-well cell culture plates and incubated for 24 h.
# (§2) After 24 h, the cell lines were treated with Lu and LuG (5, 10, 25, 50, 75, 100, 200 µg/mL). The cytotoxicity effect of Lu and LuG was measured using the MTT (3-[4,5-dimethylthiazol-2-yl]- 2,5-diphenyltetrazolium bromide) assay for 24 h. Next, 20 μL of MTT solution (5 mg/mL) was added to each well, and the complexes were incubated at 37°C for 4 hours. Afterward, the culture medium was removed and replaced with DMSO 200 μL). The absorbance of each well was determined at 570 nm using an ELISA reader, and the cell viability percentage was calculated relative to the control group.
# [4] = tested on: HUVEC cells; experiment: MTT cell viability assay, HUVEC normal cells; assay type: cell-based; settings: 5-200 µg/mL, 24 h
# Method: as §1, §2
# [5] = tested on: HepG2 cells; experiment: Cell cycle analysis by PI flow cytometry; assay type: cell-based
# Method: HepG2 cells were seeded in 6-well plates and treated with various concentrations of Luteolin-7-O-glucoside for 24 h. After treatment, the cells were fixed in a solution of ethanol: water (7:3) at -20 °C. Then, ethanol-fixed cells were washed with PBS and incubated with RNase A (100 μL) for 30 min. Following the RNase treatment, the cells were incubated in a PI/Triton X-100 solution for an additional 30 minutes. The samples were analyzed using a flow cytometer (FACSCalibur), and the data were assessed with FlowJo version 10. Finally, the G0/G1 phase (2N DNA content), S phase (intermediate DNA content), and G2/M phase (4N DNA content) were calculated.[13]
# [6] = tested on: HepG2 cells; experiment: MTT cell viability assay, HepG2; assay type: cell-based; settings: 5-200 µg/mL, 24 h (LuG also 48 and 72 h)
# Method: as §1, §2
# [7] = Biodistribution of 99mTc-radiolabeled flavonoids, organ radioactivity after SPECT imaging; set-up: species or system Wistar-Albino rats; settings: rat, in vivo
# Method: Five milligrams of tin chloride (SnCl2) was dissolved in 1 mL of hydrochloric acid 10% and diluted with 3 mL of distilled water, and the pH was adjusted to 7. Then, 1 mg of Lu and LuG and about 4 mCi of fresh pertechnetate (^99mTcO4) in 2 mL of NaCl were added to the complex. Afterward, it was incubated at room temperature for 20 minutes.
# An intraperitoneal injection of a ketamine and xylazine mixture anesthetized the Wistar-Albino rats. About 1.4 mCi of flavonoid-^99mTc complex (^99mTc-Lu and ^99mTc-LuG) was injected through the tail vein. The imaging was performed using SPECT (Single-Photon Emission Computed Tomography) at 0, 5, 15, 30, 60, and 90 min. Then, the animals were sacrificed in accordance with all ethical considerations, and each organ was carefully separated. The percentage of radioactivity in each organ was calculated by dividing the activity counted by the dose calibrator by the total radioactivity. This method ensured accurate assessment of the biodistribution of the radiolabeled compounds within the various organs.
# Organ accumulation of ^99mTc−Lu/^99mTc−LuG (%)=(Amount of radioactivity counted in each organ/Amount of radioactivity counted in whole body)×100
# [8] = tested on: HepG2 cells; set-up: method as in PMID 24257119; settings: 24 h treatment; cited from earlier work
# [9] = tested on: HepG2 cells; experiment: Annexin V-FITC/PI flow cytometry for apoptosis/necrosis; assay type: cell-based; settings: HepG2, 5, 30, 50 µg/mL
# Method: According to the results of the previous steps, LuG was selected for flow cytometry testing on the HepG2 cancer cell line. […] HepG2 cells were treated with LuG (5, 30, 50 µg/mL) for 48 h and then washed with PBS. Next, 300 µL of binding buffer was added to 1 × 10^6 cells and incubated for 15 min at 25°C in away from the light with 4 µL of FITC Annexin V and 2 µL of PI. To investigate apoptotic or necrotic pathways, data were analyzed by FlowJo software. […] Additionally, cells without any treatment (negative control) and those treated with LuG (positive control) were designated as “Auto” and “Unstained”, respectively.
# [10] = listed as luteolin-7-O-glucoside
SMILES,effect on viability of HepG2 cell line [1],apoptosis in HepG2 cells ([2]; LuG: ref 31),cytotoxicity on SW480 cells (in words) [3],cytotoxicity on normal HUVEC cells (in words) [4],effect on cell cycle progression (in words) ([5]; HepG2),"change in S phase versus control ([5]; HepG2, 24 h)","decrease of 4N DNA content (G2/M phase) versus control ([5]; HepG2, 24 h)","increase of 2N DNA content (G0/G1 phase) versus control ([5]; HepG2, 24 h)",cytotoxicity on HepG2 cells (in words) [6],"cytotoxicity on HepG2 cells (in words) [6, 10]",elimination phase of the radiolabeled compound (in words) [7],cell cycle effect in HepG2 [8],apoptosis/necrosis of HepG2 cells (in words) [9],"apoptosis/necrosis of HepG2 cells (in words) [9, 10]",apoptosis in HepG2 cells ([2]; luteolin: ref 32),cytotoxicity on HepG2 cells (in words) ([6]; listed as luteolin)
"O=c1cc(-c2ccc(O)c(O)c2)oc2cc(O[C@@H]3O[C@H](CO)[C@@H](O)[C@H](O)[C@H]3O)cc(O)c12 [LuG, luteolin-7-O-glucoside]",dose-dependent effect,induced apoptotic features,negligible toxicity; also recorded: no inhibitory effects,negligible toxicity; also recorded: did not demonstrate any cytotoxicity,impaired G1 to S progression,no significant changes,about 7%,approximately 5%,significant cytotoxicity,highest cytotoxic effect; also recorded: effectively inhibits HepG2 cell viability,more rapidly than that of its aglycone form,induced G2/M phase,non-apoptotic cell death; also recorded: no significant increase,did not involve necrotic or apoptotic pathways,,
"O=c1cc(-c2ccc(O)c(O)c2)oc2cc(O)cc(O)c12 [Lu, 3′,4′,5,7-tetrahydroxy flavone]",,,no inhibitory effects,did not demonstrate any cytotoxicity,,,,,less accumulation and cytotoxicity,,,,,,triggers classical mitochondrial apoptosis,less effective against HepG2 cells compared to the glycone form
